Measurements published in patent US4272437A, “Antibacterial agents, and 4-thio azetidinone intermediates” (priority 1979, dated 1981).
Values after ≈ are worked out from the molar mass of the structure shown. Where two headings read alike, the source gives them in different places.

Legend:
[1] = test system: Staph. aureus A-9537 and 50% serum; assay: MIC, tube dilution, Staph. aureus A9537 + 50% serum; assay type: cell-based, Staphylococcus aureus; conditions: Staphylococcus aureus, overnight 37° C., read-out: Minimum Inhibitory Concentration (M.I.C.)
Source text: (§1) Representative compounds of the present invention were subjected to in vitro antibiotic screening against a variety of microorganisms.

Ps. aeruginosa A-9843A = assay: MIC, tube dilution, Pseudomonas aeruginosa A9843A; assay type: cell-based; conditions: Pseudomonas aeruginosa, A9843A, read-out: Minimum Inhibitory Concentration (M.I.C.), Pseudomonas aeruginosa A9843A; overnight 37° C.
Source text: as §1

[2] = test system: Staph. aureus (Pen-Res) A-9606; assay: MIC, tube dilution, Staphylococcus aureus A9606 (Pen-Res); assay type: cell-based; conditions: Staphylococcus aureus, Staph. aureus A9606 (Pen-Res); overnight 37° C.; read-out: Minimum Inhibitory Concentration (M.I.C.)
Source text: as §1

Str. pyogenes A-9604 = assay: MIC, tube dilution, Streptococcus pyogenes A9604; assay type: cell-based; conditions: Streptococcus pyogenes, A9604, Str. pyogenes A9604; overnight 37° C., Nutrient Broth; read-out: Minimum Inhibitory Concentration (M.I.C.)
Source text: as §1

Ps. aeruginosa A-21213 = assay: MIC, tube dilution, Pseudomonas aeruginosa A21213; assay type: cell-based; conditions: overnight 37° C., read-out: Minimum Inhibitory Concentration (M.I.C.)
Source text: as §1

[3] = test system: Klebsiella species A20468; assay: MIC, tube dilution, Klebsiella species A20468; assay type: cell-based; conditions: Klebsiella species (K. pneumoniae) A20468; overnight 37° C.; read-out: Minimum Inhibitory Concentration (M.I.C.)
Source text: as §1

Str. faecalis A-20688 = assay: MIC, tube dilution, Streptococcus faecalis A20688; assay type: cell-based; conditions: Enterococcus faecalis, A20688, Str. faecalis A20688; overnight 37° C.; read-out: Minimum Inhibitory Concentration (M.I.C.)
Source text: as §1

E. coli A-20341-1 = assay: MIC, tube dilution, Escherichia coli A20341-1; assay type: cell-based
Source text: as §1

Ent. cloacae A-9656 = assay: MIC, tube dilution, Enterobacter cloacae A9656; assay type: cell-based; conditions: overnight 37° C., read-out: Minimum Inhibitory Concentration (M.I.C.)
Source text: as §1

[4] = test system: Staph. aureus (Meth-Res) A-15097; assay: MIC, tube dilution, Staphylococcus aureus A15097 (Meth-Res); assay type: cell-based; conditions: Staphylococcus aureus, overnight 37° C.
Source text: as §1

Pr. vulgaris A-9716 = assay: MIC, tube dilution, Proteus vulgaris / Proteus mirabilis A9716; assay type: cell-based, Proteus vulgaris (name changed to Proteus mirabilis); conditions: Proteus vulgaris, A9716, Proteus vulgaris / Proteus mirabilis A9716; overnight 37° C.; read-out: Minimum Inhibitory Concentration (M.I.C.)
Source text: as §1

Pr. mirabilis A-9900 = assay: MIC, tube dilution, Proteus mirabilis A9900; assay type: cell-based; conditions: Proteus mirabilis, A9900, Proteus mirabilis A9900; overnight 37° C.; read-out: Minimum Inhibitory Concentration (M.I.C.)
Source text: as §1

Ser. marcescens A-20019 = assay: MIC, tube dilution, Serratia marcescens A20019; assay type: cell-based; conditions: Serratia marcescens, A20019, Serratia marcescens A20019; overnight 37° C.; read-out: Minimum Inhibitory Concentration (M.I.C.)
Source text: as §1

Pr. morganii A-15153 = assay: MIC, tube dilution, Proteus morganii A15153; assay type: cell-based; conditions: Morganella morganii, A15153, Proteus morganii A15153; overnight 37° C.; read-out: Minimum Inhibitory Concentration (M.I.C.)
Source text: as §1

Proteus rettgeri A21203 = assay: MIC, tube dilution, Proteus rettgeri A21203; assay type: cell-based; conditions: Providencia rettgeri, overnight 37° C., read-out: Minimum Inhibitory Concentration (M.I.C.)
Source text: as §1

E. coli A-15119 = assay: MIC, tube dilution, Escherichia coli A15119; assay type: cell-based; conditions: Escherichia coli, A15119, E. coli A15119; overnight 37° C.; read-out: Minimum Inhibitory Concentration (M.I.C.)
Source text: as §1

Str. pneumoniae A-9585 = assay: MIC, tube dilution, Streptococcus pneumoniae A9585; assay type: cell-based; conditions: Streptococcus pneumoniae, A9585, Str. pneumoniae A9585; overnight 37° C., Nutrient Broth; read-out: Minimum Inhibitory Concentration (M.I.C.)
Source text: as §1

K. pneumoniae A-15130 = assay: MIC, tube dilution, Klebsiella pneumoniae A15130; assay type: cell-based; conditions: Klebsiella pneumoniae, A15130, K. pneumoniae A15130; overnight 37° C.; read-out: Minimum Inhibitory Concentration (M.I.C.)
Source text: as §1

Staph. aureus A-9537 = assay: MIC, tube dilution, Staphylococcus aureus A9537; assay type: cell-based; conditions: Staphylococcus aureus, A9537, Staph. aureus A9537; overnight 37° C., Nutrient Broth; read-out: Minimum Inhibitory Concentration (M.I.C.)
Source text: as §1

Ent. cloacae A-9659 = assay: MIC, tube dilution, Enterobacter cloacae A9659; assay type: cell-based; conditions: Enterobacter cloacae, A9659, Enterobacter cloacae A9659; overnight 37° C.; read-out: Minimum Inhibitory Concentration (M.I.C.)
Source text: as §1

Proteus vulgaris A21559 = assay: MIC, tube dilution, Proteus vulgaris A21559; assay type: cell-based; conditions: Proteus vulgaris, A21559, Proteus vulgaris A21559; overnight 37° C.; read-out: Minimum Inhibitory Concentration (M.I.C.)
Source text: as §1

[5] = Enterobacter cloacae, A9656, Enterobacter cloacae A9656
[6] = Staph. aureus A15097 (Meth-Res), read-out: Minimum Inhibitory Concentration (M.I.C.)
[7] = A21203, Proteus rettgeri A21203
[8] = Escherichia coli, A203411; E. coli A20341-1; overnight 37° C.; read-out: Minimum Inhibitory Concentration (M.I.C.)
[9] = read-out: Minimum Inhibitory Concentration (M.I.C.), Staph. aureus A15097 (Meth-Res)

Row | SMILES | MIC [1] [µg/mL] | MIC (Ps. aeruginosa A-9843A) [µg/mL] | MIC [2] [µg/mL] | MIC (Str. pyogenes A-9604) [µg/mL] | MIC [3] [µg/mL] | MIC (Str. faecalis A-20688) [µg/mL] | MIC (Ent. cloacae A-9656; [5]) [µg/mL] | MIC [4, 6] [µg/mL] | MIC (Pr. vulgaris A-9716) [µg/mL] | MIC (Pr. mirabilis A-9900) [µg/mL] | MIC (Ser. marcescens A-20019) [µg/mL] | MIC (Pr. morganii A-15153) [µg/mL] | MIC (Proteus rettgeri A21203; [7]) [µg/mL] | MIC (E. coli A-15119) [µg/mL] | MIC (Str. pneumoniae A-9585) [µg/mL] | MIC (K. pneumoniae A-15130) [µg/mL] | MIC (Staph. aureus A-9537) [µg/mL] | MIC (Ent. cloacae A-9659) [µg/mL] | MIC (Ps. aeruginosa A-21213; Pseudomonas aeruginosa A21213) [µg/mL] | MIC (E. coli A-20341-1; [8]) [µg/mL] | also measured
1 | O=C(O)C1=CSC2CC(=O)N12 (stereo not shown) [Example 19, Penem-3-carboxylic Acid] | 63 | 63 (≈ 368 µM) | 8 (≈ 46.7 µM) | 2 (≈ 11.7 µM) | > 125 | 125 (≈ 730 µM) | 16 (≈ 93.5 µM) | 63 (≈ 368 µM) | 16 (≈ 93.5 µM) | 16 (≈ 93.5 µM) | 16 (≈ 93.5 µM) | 16 (≈ 93.5 µM) | 16 (≈ 93.5 µM) | 8 (≈ 46.7 µM) | 0.5 (≈ 2.92 µM) | 16 (≈ 93.5 µM) | 4 (≈ 23.4 µM) | 16 (≈ 93.5 µM) | – | – | MIC (Ps. aeruginosa A-21213; Pseudomonas aeruginosa, A21213, Pseudomonas aeruginosa A21213): 125 µg/mL (≈ 730 µM); MIC (E. coli A-20341-1; Escherichia coli, A203411, E. coli A20341-1; overnight 37° C.; read-out: Minimum Inhibitory Concentration (M.I.C.)): 16 µg/mL (≈ 93.5 µM)
2 | O=C(O)C1=C(Cc2c[nH]c3ccccc23)SC2CC(=O)N12 (stereo not shown) [Preparation 19, 2-(3'-Indole)methylpenem-3-carboxylic Acid] | 32 | > 125 | 0.5 (≈ 1.66 µM) | 0.06 (≈ 0.2 µM) | > 125 | 125 (≈ 416 µM) | 63 (≈ 210 µM) | – | 2 (≈ 6.66 µM) | 1 (≈ 3.33 µM) | 63 (≈ 210 µM) | 2 (≈ 6.66 µM) | 2 (≈ 6.66 µM) | 8 (≈ 26.6 µM) | 0.03 (≈ 0.0999 µM) | 32 (≈ 107 µM) | 0.03 (≈ 0.0999 µM) | 63 (≈ 210 µM) | > 125 | > 125 | MIC [4, 9]: 125 µg/mL (≈ 416 µM)
3 | CC1(CC2=C(C(=O)O)N3C(=O)CC3S2)OCCO1 (stereo not shown) [Preparation 22, 2-(Acetonyl-ethylene-ketal)penem-3-carboxylic Acid] | 32 | 125 (≈ 461 µM) | 32 (≈ 118 µM) | 0.25 (≈ 0.922 µM) | 125 (≈ 461 µM) | 125 (≈ 461 µM) | 63 (≈ 232 µM) | – | 4 (≈ 14.7 µM) | 16 (≈ 59 µM) | 63 (≈ 232 µM) | 8 (≈ 29.5 µM) | 16 (≈ 59 µM) | – | 0.13 (≈ 0.479 µM) | 32 (≈ 118 µM) | 0.5 (≈ 1.84 µM) | 63 (≈ 232 µM) | 125 (≈ 461 µM) | 125 (≈ 461 µM) | MIC [4, 9]: > 125 µg/mL
4 | Cc1cc(C)n(CC2=C(C(=O)O)N3C(=O)CC3S2)n1 (stereo not shown) [Example 77, Sodium 2-(3,5-Dimethyl-1H-pyrazolemethyl)-penem-3-carboxylate] | > 63 | > 125 | 4 | 0.5 | > 125 | 125 | – | 16 | – | 2 | > 125 | 16 | – | 4 | 0.03 | > 125 | 0.13 | > 125 | > 125 | > 125 | MIC (Ent. cloacae A-9656; Enterobacter cloacae A9656): 125 µg/mL; MIC (Proteus rettgeri A21203; Proteus rettgeri A21203): > 125 µg/mL; MIC (Proteus vulgaris A21559): 63 µg/mL
